Our source for the Ki and Kd values is patent US9029370B2, “Substituted benzamide derivatives” (Hoffmann-La Roche Inc., priority 2011, dated 2015).

Structures can show the parent of a compound that is named as a salt.

One assay addresses mouse TAAR1 (Mus musculus (Mouse), UniProt Q923Y8). As to the kind of experiment: Radioligand binding assay on mouse TAAR1. The note with it: for Ki: mouse TAAR1, HEK-293 membranes, first value of the pair (before the slash), read-out: Ki (μM) mouse/rat. In outline:
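Membranes from HEK293 cells stably expressing mouse TAAR1, in HEPES-NaOH pH 7.4 with 0.1 mM EDTA, were incubated 1 h at 4°C with tritiated (S)-4-[(ethyl-phenyl-amino)-methyl]-4,5-dihydro-oxazol-2-ylamine and compound (10 pM–10 μM, duplicates). Nonspecific binding defined with 10 μM unlabeled ligand; bound radioactivity by filtration and scintillation counting.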

The target of another assay is rat TAAR1 (Rattus norvegicus (Rat), UniProt Q923Y9). Description: Radioligand binding assay on rat TAAR1. Particulars: for Ki: rat TAAR1, HEK-293 membranes, second value of the pair (line below), read-out: Ki (μM) mouse/rat. In outline:
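Membranes from HEK293 cells stably expressing rat TAAR1 were incubated 1 hr at 4 °C with ^3[H]-(S)-4-[(ethyl-phenyl-amino)-methyl]-4,5-dihydro-oxazol-2-ylamine; nonspecific binding was defined with 10 μM unlabeled ligand. Compounds were tested at 10 pM to 10 μM in duplicate. Bound radioactivity was read by filtration and scintillation counting.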

Sequence of rat TAAR1 (Q923Y9 whole entry): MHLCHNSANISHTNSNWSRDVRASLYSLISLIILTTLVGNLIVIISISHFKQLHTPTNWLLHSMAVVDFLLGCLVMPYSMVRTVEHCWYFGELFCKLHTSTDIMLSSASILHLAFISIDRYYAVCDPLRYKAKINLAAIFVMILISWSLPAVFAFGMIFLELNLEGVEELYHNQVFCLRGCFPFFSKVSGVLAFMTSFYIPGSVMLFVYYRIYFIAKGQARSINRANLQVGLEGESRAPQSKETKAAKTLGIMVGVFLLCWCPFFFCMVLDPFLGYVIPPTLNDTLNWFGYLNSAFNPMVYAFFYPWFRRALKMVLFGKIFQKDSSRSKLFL
Sequence of mouse TAAR1 (Q923Y8 whole entry): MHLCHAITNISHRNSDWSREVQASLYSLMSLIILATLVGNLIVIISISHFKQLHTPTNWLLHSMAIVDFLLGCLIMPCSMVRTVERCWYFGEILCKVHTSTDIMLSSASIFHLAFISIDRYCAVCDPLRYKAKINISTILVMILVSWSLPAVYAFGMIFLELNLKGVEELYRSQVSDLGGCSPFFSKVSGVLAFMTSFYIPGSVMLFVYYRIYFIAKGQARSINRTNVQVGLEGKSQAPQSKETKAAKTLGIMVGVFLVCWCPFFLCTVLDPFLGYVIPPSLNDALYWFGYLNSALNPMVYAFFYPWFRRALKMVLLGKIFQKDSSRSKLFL

For `COc1cc(C(=O)Nc2ccc([C@H]3CNCCO3)cc2F)cc(C(N)=O)n1` [Example 120, (S)—N4-(2-Fluoro-4-(morpholin-2-yl)phenyl)-6-methoxypyridine-2,4-dicarboxamide hydrochloride], the Ki on mouse TAAR1 amounted to 0.0851 µM; at rat TAAR1, 0.426 µM.

Consider `COc1cc(C(=O)Nc2ccc([C@H]3CNCCO3)cc2F)cc(C#N)n1` [Example 121, (S)-2-Cyano-N-(2-fluoro-4-(morpholin-2-yl)phenyl)-6-methoxyisonicotinamide hydrochloride], for which the Ki on mouse TAAR1 was found to be 0.0145 µM; at rat TAAR1, 0.0158 µM.

For the compound `Cc1cc(C(=O)Nc2ccc([C@H]3CNCCO3)cc2Cl)cc(C(N)=O)n1` [Example 122, (S)—N4-(2-Chloro-4-(morpholin-2-yl)phenyl)-6-methylpyridine-2,4-dicarboxamide hydrochloride], the Ki was 0.14 µM on mouse TAAR1 and 0.758 µM on rat TAAR1.

As for `Cc1cc(C(=O)Nc2ccc([C@H]3CNCCO3)cc2Cl)cc(C#N)n1` [Example 123, (S)—N-(2-Chloro-4-(morpholin-2-yl)phenyl)-2-cyano-6-methylisonicotinamide hydrochloride], the Ki is 0.0413 µM on mouse TAAR1 and 0.0474 µM on rat TAAR1.

Regarding `COc1cc(C(=O)Nc2ccc([C@H]3CNCCO3)cc2Cl)cc(C#N)n1` [Example 124, (S)—N-(2-Chloro-4-(morpholin-2-yl)phenyl)-2-cyano-6-methoxyisonicotinamide hydrochloride], the Ki turned out to be 0.0235 µM at mouse TAAR1 and 0.0231 µM at rat TAAR1.

`O=C(Nc1ccc([C@H]2CNCCO2)cc1F)c1cnn(-c2cncc(C(F)(F)F)n2)c1` [Example 125, (S)—N-(2-Fluoro-4-(morpholin-2-yl)phenyl)-1-(6-(trifluoromethyl)pyrazin-2-yl)-1H-pyrazole-4-carboxamide hydrochloride]: the Ki on mouse TAAR1 was 0.0182 µM; at rat TAAR1, 0.0076 µM.

`O=C(Nc1ccc([C@H]2CNCCO2)cc1Cl)c1cnn(-c2cncc(C(F)(F)F)n2)c1` [Example 126, (S)—N-(2-Chloro-4-(morpholin-2-yl)phenyl)-1-(6-(trifluoromethyl)pyrazin-2-yl)-1H-pyrazole-4-carboxamide hydrochloride]: the Ki turned out to be 0.0202 µM on mouse TAAR1 and 0.0047 µM at rat TAAR1.

Turning to `O=C(Nc1ccc([C@H]2CNCCO2)c(F)c1)c1cnn(-c2cncc(C(F)(F)F)n2)c1` [Example 127, (S)—N-(3-Fluoro-4-(morpholin-2-yl)phenyl)-1-(6-(trifluoromethyl)pyrazin-2-yl)-1H-pyrazole-4-carboxamide hydrochloride], the Ki at mouse TAAR1 was 0.007 µM; at rat TAAR1, 0.0016 µM.

Turning to `O=C(Nc1ccc([C@H]2CNCCO2)c(Cl)c1)c1cnn(-c2cncc(C(F)(F)F)n2)c1` [Example 128, (S)—N-(3-Chloro-4-(morpholin-2-yl)phenyl)-1-(6-(trifluoromethyl)pyrazin-2-yl)-1H-pyrazole-4-carboxamide hydrochloride], the Ki at mouse TAAR1 is 0.0088 µM; at rat TAAR1, 0.0025 µM.

Regarding `O=C(Nc1ccc([C@H]2CNCCO2)c(F)c1)c1cnn(-c2cc(C(F)(F)F)ncn2)c1` [Example 129, (S)—N-(3-Fluoro-4-(morpholin-2-yl)phenyl)-1-(6-(trifluoromethyl)pyrimidin-4-yl)-1H-pyrazole-4-carboxamide hydrochloride], the values for the Ki on mouse TAAR1 and on rat TAAR1 were 0.0073 µM and 0.0025 µM, respectively.

On to `O=C(Nc1ccc([C@H]2CNCCO2)c(F)c1)c1cnn(-c2ccc(C(F)(F)F)nc2)c1` [Example 130, (S)—N-(3-Fluoro-4-(morpholin-2-yl)phenyl)-1-(6-(trifluoromethyl)pyridin-3-yl)-1H-pyrazole-4-carboxamide hydrochloride], for which the Ki at mouse TAAR1 was determined as 0.0075 µM; on rat TAAR1, 0.0038 µM.

As to `N#Cc1cnc(-n2cc(C(=O)Nc3ccc([C@H]4CNCCO4)c(F)c3)cn2)cn1` [Example 131, (S)-1-(5-Cyanopyrazin-2-yl)-N-(3-fluoro-4-(morpholin-2-yl)phenyl)-1H-pyrazole-4-carboxamide hydrochloride], the Ki at mouse TAAR1 worked out at 0.0254 µM; on rat TAAR1, 0.0144 µM.

As for `N#Cc1cc(Cl)cc(C(=O)Nc2ccc([C@H]3CNCCO3)c(F)c2)n1` [Example 133, (S)-4-Chloro-6-cyano-N-(3-fluoro-4-(morpholin-2-yl)phenyl)picolinamide hydrochloride], the values for the Ki on mouse TAAR1 and on rat TAAR1 were 0.0095 µM and 0.018 µM, respectively.

`Cc1nc(C(=O)Nc2ccc([C@H]3CNCCO3)cc2F)ccc1C#N` [Example 135, (S)-5-Cyano-N-(2-fluoro-4-(morpholin-2-yl)phenyl)-6-methylpicolinamide hydrochloride]: the Ki is 0.0105 µM at mouse TAAR1 and 0.578 µM on rat TAAR1.

On to `Cc1nc(C(=O)Nc2ccc([C@H]3CNCCO3)c(F)c2)ccc1C#N` [Example 136, (S)-5-Cyano-N-(3-fluoro-4-(morpholin-2-yl)phenyl)-6-methylpicolinamide hydrochloride], for which the Ki was determined as 0.0075 µM on mouse TAAR1 and 0.0585 µM on rat TAAR1.

`O=C(Nc1ccc([C@H]2CNCCO2)c(F)c1)c1cnc(C(F)(F)F)cn1` [Example 137, (S)—N-(3-Fluoro-4-(morpholin-2-yl)phenyl)-5-(trifluoromethyl)pyrazine-2-carboxamide hydrochloride]: the Ki stood at 0.0067 µM at mouse TAAR1 and 0.0301 µM at rat TAAR1.

As for `CCOc1ccc(C(=O)Nc2ccc([C@H]3CNCCO3)cc2F)cn1` [Example 138, (S)-6-Ethoxy-N-(2-fluoro-4-(morpholin-2-yl)phenyl)nicotinamide], the Ki was 0.0042 µM at mouse TAAR1 and 0.308 µM on rat TAAR1.

For orientation: Kd means the equilibrium constant for the complex coming apart. Turning to `CCN(C[C@H]1COC(N)=N1)c1ccccc1` [^3[H]-(S)-4-[(ethyl-phenyl-amino)-methyl]-4,5-dihydro-oxazol-2-ylamine, reference compound], the Kd at mouse TAAR1 (mouse TAAR1 membranes, saturation curve, usual value, read-out: dissociation constant (Kd) of the radioligand) is about 0.7 nM; at rat TAAR1 (rat TAAR1 membranes, saturation curve, usual value, read-out: dissociation constant (Kd) of the radioligand) it was about 2.3 nM.
